Laboratory results from patent US20120190666A1, “Heteroaryl Compounds as PIKK Inhibitors” (Amgen Inc., priority 2009, published 2012).

What was measured:
[1] = test system: phosphorylation of Akt at Serine 473 in U87 MG cells; assay: pAkt AlphaScreen (U87 cell); type: cell-based; conditions: pAkt at Serine 473, U87 MG cells, two hours with compound
In short: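 U87 MG cells (5K per well, plated overnight) treated 2 h at 37 °C with compound, 25 μM to 11.9 pM final in 0.5% DMSO. Lysates assayed for Akt Ser473 phosphorylation with SureFire AlphaScreen, incubated overnight at room temperature; IC50 from percent of control.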

mTOR = mTOR (Homo sapiens, UniProt P42345); assay: mTOR LanthaScreen (TR-FRET, phosphorylation of 4EBP1); type: biochemical; conditions: phosphorylation of GFP-4E-BP1, 10 μM ATP, 90 minutes
In short: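 Final reaction: 400 nM GFP-4E-BP1, 10 μM ATP, 0.15 μg/ml mTOR, compound 50 μM down to 23.84 pM (22-point 1:2 series) in 1% DMSO, buffer with 2 mM DTT; 90 min incubation.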

Row | SMILES | IC50 ([1]; Homo sapiens, U-87 MG, 2 h) [nM] | IC50 (mTOR) [nM] | IC50 [1] [nM]
1 | Cc1nc(N)nc(-c2c(Nc3cc[nH]n3)nc3ccc(-c4ccc(C(=O)O)cc4C)cn23)n1 [Cpd 177, 4-(3-(4-amino-6-methyl-1,3,5-triazin-2-yl)-2-(1H-pyrazol-3-ylamino)imidazo[1,2-a]pyridin-6-yl)-3-methylbenzoic acid] | 170 | 1 | –
2 | Cc1nc(N)nc(-c2c(Nc3cc[nH]n3)nc3cc(C4=CCN(C(=O)OC(C)(C)C)CC4)ccn23)n1 [Cpd 183, tert-butyl 4-(3-(4-amino-6-methyl-1,3,5-triazin-2-yl)-2-(1H-pyrazol-3-ylamino)imidazo[1,2-a]pyridin-7-yl)-3,6-dihydro-1(2H)-pyridinecarboxylate] | 760 | 460 | –
3 | COCCOc1ccn2c(-c3nc(C)nc(N)n3)c(Nc3cc[nH]n3)nc2c1 [Cpd 185, 3-(4-amino-6-methyl-1,3,5-triazin-2-yl)-7-(2-methoxyethoxy)-N-1H-pyrazol-3-ylimidazo[1,2-a]pyridin-2-amine] | 50 | 40 | –
4 | Cc1nc(N)nc(-c2c(Nc3cc[nH]n3)nc3cc(OCCN4CCCC4)ccn23)n1 [Cpd 188] | 320 | 360 | –
5 | Cc1nc(N)nc(-c2c(Nc3ccn(C(=O)Nc4ccccc4)n3)nc3ccccn23)n1 [Cpd 204, 3-((3-(4-amino-6-methyl-1,3,5-triazin-2-yl)imidazo[1,2-a]pyridin-2-yl)amino)-N-phenyl-1H-pyrazole-1-carboxamide] | 90 | 90 | –
6 | Cc1nc(N)nc(-c2c(Nc3cnn(C(=O)Oc4ccccc4)c3)nc3ccccn23)n1 [Cpd 209, phenyl 4-((3-(4-amino-6-methyl-1,3,5-triazin-2-yl)imidazo[1,2-a]pyridin-2-yl)amino)-1H-pyrazole-1-carboxylate] | 110 | 300 | –
7 | Cc1nc(N)cc(-c2c(Nc3ccn(-c4ccccn4)n3)nc3ccccn23)n1 [Cpd 216, 3-(6-amino-2-methyl-4-pyrimidinyl)-N-(1-(2-pyridinyl)-1H-pyrazol-3-yl)imidazo[1,2-a]pyridin-2-amine] | 450 | 860 | –
8 | Cc1nc(N)cc(-c2c(Nc3ccn(C(=O)NCc4ccccc4)n3)nc3ccccn23)n1 [Cpd 222, 3-((3-(6-amino-2-methyl-4-pyrimidinyl)imidazo[1,2-a]pyridin-2-yl)amino)-N-benzyl-1H-pyrazole-1-carboxamide] | 1810 | 5880 | –
9 | Cc1nc(N)cc(-c2c(Nc3ccn(C(=O)Nc4ccccc4C(F)(F)F)n3)nc3cccnn23)n1 [Cpd 239, 3-((3-(6-amino-2-methyl-4-pyrimidinyl)imidazo[1,2-b]pyridazin-2-yl)amino)-N-(2-(trifluoromethyl)phenyl)-1H-pyrazole-1-carboxamide] | 10 | 8 | –
10 | Cc1nc(N)cc(-c2c(Nc3ccn(C(=O)Nc4cc(F)cc(F)c4)n3)nc3cccnn23)n1 [Cpd 242, 3-((3-(6-amino-2-methyl-4-pyrimidinyl)imidazo[1,2-b]pyridazin-2-yl)amino)-N-(3,5-difluorophenyl)-1H-pyrazole-1-carboxamide] | 80 | 80 | –
11 | Cc1nc(N)cc(-c2c(Nc3ccnn3C(=O)N3CCC3)nc3cccnn23)n1 [Cpd 257, 3-(6-amino-2-methyl-4-pyrimidinyl)-N-(1-(1-azetidinylcarbonyl)-1H-pyrazol-5-yl)imidazo[1,2-b]pyridazin-2-amine] | 1050 | 1690 | –
12 | COc1ccc(-c2ccc3nc(Nc4ccn[nH]4)c(-c4nc(C)nc(N)n4)n3c2)cc1CO [Cpd 286] | 10 | 120 | –
13 | Cc1nc(N)nc(-c2c(Nc3ccn[nH]3)nc3ccc(CCC(O)CO)cn23)n1 (centres unmarked) [Cpd 291, 4-(3-(4-amino-6-methyl-1,3,5-triazin-2-yl)-2-(1H-pyrazol-5-ylamino)-midazo[1,2-a]pyridin-6-yl)-1,2-butanediol] | – | 1210 | 170
14 | Cc1nc(N)nc(-c2c(Nc3cc[nH]n3)nc3ccc(-c4ccc(S(C)(=O)=O)cc4)cn23)n1 [Cpd 344, 3-(4-amino-6-methyl-1,3,5-triazin-2-yl)-6-(4-(methylsulfonyl)phenyl)-N-1H-pyrazol-3-ylimidazo[1,2-a]pyridin-2-amine] | 20 | 80 | –
15 | CNS(=O)(=O)c1ccc(-c2ccc3nc(Nc4cc[nH]n4)c(-c4nc(C)nc(N)n4)n3c2)cc1 [Cpd 351, 4-(3-(4-amino-6-methyl-1,3,5-triazin-2-yl)-2-(1H-pyrazol-3-ylamino)imidazo[1,2-a]pyridin-6-yl)-N-methylbenzenesulfonamide] | 30 | 230 | –
16 | Cc1nc(N)nc(-c2c(Nc3ccn(C)n3)nc3ccc(-c4ccc(S(C)(=O)=O)cc4)cn23)n1 [Cpd 354] | 100 | 320 | –
